According to article PMC6864091, “A LONELY GUY protein of Bordetella pertussis with unique features is related to oxidative stress” (Scientific Reports, 2019):

Columns and labels:
BP1253 (BpLOG) [1] = target: T1, BP1253 (BpLOG) (Bordetella pertussis, UniProt Q7VYQ7); experiment: SPR (Biacore T200, steady state, amine-coupled BP1253-His); cleavage also shown by TLC; format: binding
T1 construct: recombinant BP1253 with C-terminal 6x His tag (BP1253-His)

BP1253 (BpLOG) [2] = target: T1, BP1253 (BpLOG); experiment: SPR (data not shown); format: binding
[3] = target: the molecule itself; experiment: SEC; analytical SEC, BEH200 column 4.6 x 300 mm, 10 mM NaH2PO4, 400 mM (NH4)2SO4 pH 6.0; samples of 0.62 mg/ml and 3 mg/ml; mass from a calibration curve of standard proteins

| Molecule | Kd (BP1253 (BpLOG) [1]) [µM] | Kd (BP1253 (BpLOG) [2]) [µM] | further results |
| --- | --- | --- | --- |
| Nc1nc2c(ncn2[C@@H]2O[C@H](COP(=O)(O)O)[C@@H](O)[C@H]2O)c(=O)[nH]1 [GMP] | 38.6 |  |  |
| O=c1ccn([C@@H]2O[C@H](COP(=O)(O)O)[C@@H](O)[C@H]2O)c(=O)[nH]1 [UMP] |  | 6100 |  |
| Cc1cn([C@H]2C[C@H](O)[C@@H](COP(=O)(O)O)O2)c(=O)[nH]c1=O [TMP] |  | 2400 |  |
| Nc1ncnc2c1ncn2[C@@H]1O[C@H](COP(=O)(O)O)[C@@H](O)[C@H]1O [AMP] | 5.7 |  |  |
| BP1253 (enzyme, Bordetella pertussis, UniProt Q7VYQ7 1-209, looked up, also called BpLOG; BP1253-His) MSEIKTAAEKLADIGPAVSMFGSARISRESPYYETCAAISAALAGAGFAIIAGGGPGIMEAANKGAFEAGGTSVGLNISLPHEAHNNEYQTISLSFEYFYSRKATFFMHSMAYVAMPGGFGTLDELFEALTLIQTGKVPPAPIVLVGSEFWHGLVDWLGEQLLANGMIAAHDLNLFIIEDDPAKVVRKVVEFHDKQGRTDSQYAPSLPA |  |  | stoichiometry N [3]: 2 |
